Tests used:
[1] = test system: BLM-induced fibrotic mouse PCLSs; test: Fibrotic mouse precision-cut lung slices (PCLS); assay type: cell-based; settings: 30 μΜ, 72 h
Method: Fourteen days after administration, mice were euthanized and lungs were perfused with PBS. Lungs were subsequently inflated through the trachea with pre-warmed (40-42 °C) low melting-point agarose. Following agarose solidification, the left lateral lobe was excised and sectioned into 300μm-thick slices using a vibratome machine. Lung slices were placed in 12- or 24-well culture plates containing complete DMEM supplemented with 1% penicillin/streptomycin, and 0.1% amphotericin B, and maintained at 37 °C, 5% CO2 and ≥95% relative humidity. After an overnight equilibration period, slices were treated with either GLPG-1690 (30μM) or compound 5 (30μM) for 72 h. Culture medium was refreshed every 24 h throughout the treatment period. For downstream gene expression analysis, three slices were pooled per sample for RNA extraction. Control PCLS were generated from saline-treated mice. […] Fluorophore-conjugated secondary antibody (1:500) was applied for 1 h at room temperature, and nuclei were counterstained with DAPI. Brightfield and fluorescence imaging were performed using the Olympus VS200 slide scanner.

[2] = test system: NHLFs; test: TGF-β-induced normal human lung fibroblasts (NHLFs): fibrotic markers and PPARγ target genes; assay type: cell-based; settings: 75 μΜ, TGFβ 10 ng/ml
Method: Normal human lung fibroblasts (NHLFs), clone 832, were isolated from the adjacent healthy tissue of a patient undergoing open lung surgery for cancer at the Department of Pulmonology, Bichat-Claude Bernard Hospital, Paris/France; studies were approved by the Committee for Personal Protection (CPP)—Ile de France 1 (#0911932). The patient provided written consent to the use of his/her sample for research purposes; no compensation was provided. NHLFs were cultured in DMEM supplemented with 10% FBS, 1% penicillin/streptomycin, and 0.1% amphotericin B at 37 °C, 5% CO2 and ≥95% relative humidity.
For experiments, NHLFs were seeded in 6-well plates at a density of 2 × 10^5 cells per well. After overnight serum starvation, cells were pre-treated with EL244 or vehicle (concentrations specified in the corresponding figures) for 1 h, followed by stimulation with TGFβ (10 ng/mL) for 24 h.
Cells were washed twice with ice-cold 1× PBS and lysed in RIPA buffer containing 50 mM Tris-HCl (pH 7.4), 1 mM EDTA, 150 mM NaCl, 0.25% (w/v) sodium deoxycholate, 1% (v/v) Triton X-100, 0.1% (w/v) SDS and 1 mM PMSF. Equal amounts of protein extracts (30 μg) were separated into 10% SDS-PAGE gels and subsequently electro-transferred onto nitrocellulose membranes. Membranes were blocked for 1 h at room temperature in 1X TBS-T containing 5% non-fat dry milk. […] Immunoreactive protein bands were detected using ECL.

[3] = test system: liver; test: Serum ALT/AST after 2 weeks of inhaled EL244; assay type: in vivo, mice; settings: 2 weeks inhaled 15 mg/kg o.d.
Method: Figure S7. Inhaled prophylactic EL244 administration attenuates BLM-induced pulmonary fibrosis. Related to […]
EL244 was administered via inhalation at 15 mg/kg, once daily, from one day before to 14 days after bleomycin (BLM) administration (day 0). The compound was dissolved in 15% Kolliphor in saline. The vehicle (15% Kolliphor in saline) was administered to both the SAL and BLM control groups.
(A) Weight change in the different mouse groups during the 2 weeks of the pulmonary fibrosis experiment.
(B-D) Respiratory mechanics assessed using the FlexiVent system (n=6,8,7). Parameters include mean static lung compliance (B), mean respiratory system compliance (C) and mean total lung capacity (D).
(E) Total protein concentration in BALFs, as determined with the Bradford assay (n=6,8,7).
(F) Inflammatory cell numbers in BALFs, as counted with a hematocytometer (n=6,8,7).
(G) Soluble collagen levels in the BALFs were detected with the direct red assay (n=6,8,7). […]
(J) Quantification of fibrosis severity in H&E-stained lung sections via Ashcroft scoring (n=6,8,7). […]
Following normality testing, statistical significance was assessed with one-way ANOVA and post-hoc Tukey’s test (B, C, D, E, K/ALT, K/ALT/AST) or Welch ANOVA and post-hoc Games-Howell test (F, G, H, J) or Kruskal Wallis and post-hoc Dunn’s test (K/AST); */**/***/**** denote p<0.05/0.01/0.001/0.0001, respectively.

[4] = test system: NHLFs; test: Mitotracker assay in NHLFs; assay type: cell-based, human; settings: 25 μM, TGFβ 10 ng/mL, 24 h
Method: NHLFs were plated at a density of 1,2 × 10^4 cells/well of a 96-well plate. The next day TGFβ (10 ng/mL) and EL244 (25 μM) or vehicle (DMSO) were added to the respective wells and incubated for 24 h. Medium was replaced with DMEM without phenol red that contained LumiTracker Mito Red CMXRos at 25 nM and a 30 min incubation followed. Medium was replaced with fresh DMEM without phenol red and without Lumitracker. Fluorescence was measured (excitation at 580 nm and reading at 600 nm) with a Tecan M200 Fluorimeter and normalized with cell number per well as measured with a Tecan Cyto Spark after cell fixation with PFA at a final concentration of 2%.

Structure (SMILES) | Col1a1 mRNA expression [1] | Fn1 mRNA expression [1] | Lung architecture, fibrotic lesions [1] | Col1a1 and Acta2 (aSMA) mRNA and protein [2] | PPARγ target genes and PPARγ expression [2] | Liver toxicity (ALT/AST levels) [3] | TGF-β-induced mitochondrial activation [4]
O=C1NC(=O)C(Cc2ccc(OCCN3CCN(C(=O)OCc4cc(Cl)cc(Cl)c4)CC3)cc2)S1 (stereo not shown) [Compound 5, 3,5-dichlorobenzyl4-(2-(4-((2,4-dioxothiazolidin-5-yl)methyl)phenoxy)ethyl)piperazine-1-carboxylate] | decreasing | decreasing | improved the lung architecture | – | – | – | –
O=C1NC(=O)C(Cc2ccc(OCCC3CCN(C(=O)OCc4cc(Cl)cc(Cl)c4)CC3)cc2)S1 (stereo not shown) [EL244, 3,5-dichlorobenzyl 4-(2-(4-((2,4-dioxothiazolidin-5-yl)methyl)phenoxy)ethyl)piperidine-1-carboxylate] | – | – | – | suppressed | stimulating the expression of PPARγ target genes | did not cause any appreciable toxicity in the liver | reduced TGF-β-induced mitochondrial activation

From paper PMC13198257, “An aerosolized dual-action autotaxin inhibitor-PPARγ agonist for the treatment of pulmonary fibrosis” (Cell Reports Medicine, 2026)
